In general, mortality refers to the percentage killed. The low end stands for a weak lethal effect, the high end for a strong lethal effect.

Series [1] relates to hard ticks (Ixodea pacificus and Dermacentor albipietus). The series can be described thus: Tick treated filter paper test, hard ticks. Type of series: in vivo. As to the method: In a double blind experiment, filter papers (90 mm) (Whatman) were treated to uniform saturation with 1 ml of test formula and placed in 90 mm petri dishes. Ten arachnids were placed in each petri dish and the dish closed. Observations of mortality were made at 30 minutes, 1 hour, 3 hours, 6 hours, 12 hours and 24 hours. The cinnamic aldehyde concentrations varied from 10-50,000 ppm in a vehicle of 2% Tween 80, 6% NaHCO3. The effect of vehicle alone or H2O (HPLC) was also tested. In separate experiments, the effects of the components of the vehicle were evaluated in comparison to water.

Series [2] has as its system melon aphid (Aphis gossypii Glover). The series can be described thus: Melon aphid plant foliar bioassay on flowering chrysanthemums. It counts as in vivo. The note with it: each concentration (1,000, 3,000, 10,000 ppm); after 36 hours; pre-count mean of about 60. As for the experimental part: Treatment of melon aphid (Aphis gossypii Glover) is conducted as follows. Plants were grown in […] pots in planting soil in greenhouse. Chrysantemums (c. morifolum) were used for melon aphid plant foliar bioassays.
Flowering plants were infested and pre-count population size for each plant were taken and number of mean of aphids nymphs per leaf calculated. The plants were sprayed to runoff (about 5 ml) with an aqueous formulation containing 1,000 ppm, 3,000 ppm, and 10,000 ppm concentration of cinnamic aldehyde, and a negative control containing only H2O. After 36 hours, the number of insects on the leaves sprayed with a given test formulation was determined and compared with that of insects on leaves sprayed with negative control only. Mean aphid nymphs per leaf were determined to be less than 10 for each cinnamic aldehyde concentration compared to a pre-count mean of about 60.

In series [3] the test system is thrips insects (Frankliniella occidentalis). The series can be described thus: Residual activity on treated filter paper against thrips. It counts as in vivo. The note with it: rehydrated 24 and 72 hours after spraying, thrips exposed one hour. As for the experimental part:
In the first experiment, two ml of two concentrations of CNMA (0.3 and 1%) were sprayed on filter paper (Whatman). As a negative control, two ml of water was also sprayed on filter paper. Twenty-four hours later, two ml of water were sprayed on treatment and control filter paper, which were then dried for 30 min. Approximately 30 thrips insects (Frankliniella occidentalis) were introduced onto the treated filter papers and the number of F. occidentalis were observed after one hour. Mean mortality was calculated for each treatment. After 72 hours, the treated filter papers were flipped over and only the negative control filter paper and the filter paper treated with 1% CNMA were sprayed with 2 ml of water and allowed to dry for 30 minutes. Approximately 30 thrips were introduced onto the two treated filter papers and after one hour the number of dead F. occidentalis were observed and the mean mortality calculated for each treatment. A similar assay was conducted using AHCNMA. Mean mortality was higher for rehydrated filter papers compared to non-rehydrated filter papers over time.

In series [4] the test system is larvae of Culex quinquefasciatus mosquito. The series can be described thus: Mosquito larvicidal bioassay. It counts as in vivo. As for the experimental part: Larvicidal activity of test formulations at varying concentrations was tested in a double blind bioassay on larvae of Culex quinquefasciatus mosquito. Twenty-five late 3rd-instar larvae of Culex quinquefasciatus were placed in 100×80 mm Purex #3250 glass containers. 250 ml distilled H2O was pipetted into the containers. One ml of test formulation containing 10 to 25,000 ppm cinnamic aldehyde in vehicle (2% by volume Tween 80 and 6% sodium bicarbonate in distilled H2O) was pipetted into each container. A control blank using 1 ml distilled H2O instead of a test formulation was also prepared.
All treated and untreated glass containers were placed in temperature controlled room at 29° C. Each container was evaluated for larvae mortality at 24 hour intervals. The number of dead larvae were reported. See Table 5 for results of the bioassay. Concentrations above 5,000 ppm cinnamic aldehyde gave 90% mortality at 24 and 48 hours.

In series [5] the test system is melon aphids. In words: Melon aphid whole plant spray with cinnamaldehyde and saponin. The note with it: whole plant sprayed to drip. It counts as in vivo, Aphis gossypii Glover. As for the experimental part:
Whole nonflowering potted chrysanthemum plants were used to assay melon aphids. Two plants were treated for each treatment and two leaves, one from the top of the plant and one from the bottom of the plant, were sampled to determine the number of living and dead melon aphids. Three treatments were applied: 1.0% CNMA plus 0.5% saponin, 0.5% CNMA plus 0.25% saponin, and 0.5% saponin only. The whole plants were sprayed to “drip” on both the top and bottom sides of leaves. Results are presented as the proportion of aphids found dead. Results were as follows: control plant (0.5% saponin only) 14.8% ±4.5; 0.5% CNMA 48.3±16.1; 1.0% CNMA 72.0±11.2.

Where [6] appears, read: 1 ml of 100 ppm formulation in 250 ml H2O.
[7] abbreviates: 1 ml of 2,500 ppm formulation in 250 ml H2O.
Setting [8] is: 1 ml of 5,000 ppm formulation in 250 ml H2O.
Where [9] appears, read: 1 ml of 12,500 ppm formulation in 250 ml H2O.
Setting [10] is: 1 ml of 25,000 ppm formulation in 250 ml H2O.

Turning to `O=C/C=C/c1ccccc1` [CNMA, cinnamic aldehyde], the mortality is reported as 100% in series [1] (2500 ppm in vehicle (2% Tween 80, 6% NaHCO3), in 24 hours, preliminary experiments); 90% in series [4] (concentrations above 5,000 ppm, at 24 and 48 hours). In series [1] (concentrations below 2500 in vehicle), the effect on mortality entry is recorded as “no effect on mortality”. In addition, the “Mean aphid nymphs per leaf” value in series [2] is “less than 10”. Besides, the “residual activity in words” value in series [3] is “residual activity”. Besides, the “Percent Mortality (time) 24 hours” value in series [4] (1 ml of 10 ppm formulation (2% Tween 80, 6% sodium bicarbonate) in 250 ml H2O) is listed as 0%; in series [4] (setting [6]) it was 2%; in series [4] (setting [7]), 4%; in series [4] (setting [8]), 8%; in series [4] (setting [9]), 90%; in series [4] (setting [10]), 100%. For the same molecule, the “Percent Mortality (time) 48 hours” value in series [4] (1 ml of 10 ppm formulation in 250 ml H2O) is given as 0%; in series [4] (setting [6]) it was 2%; in series [4] (setting [7]) it was 4%; in series [4] (setting [8]), 20%; in series [4] (setting [9]), 90%; in series [4] (setting [10]), 100%. Also, the “proportion of aphids found dead” value was found to be 48.3±16.1% in series [5] (0.5% CNMA plus […] saponin) and 72.0±11.2% in series [5] (1.0% CNMA plus 0.5% saponin).

Source of the values: US6750256B1, “Use of aromatic aldehydes as insecticides” (Proguard, Inc., priority 1994, dated 2004).
